{"source": "patent US20170312254A1", "about": "“Low Dose Pharmaceutical Composition” (Cipla Limited, priority 2010, published 2017)", "origin": "cited, not measured here", "key": {"[1]": {"conditions": "premarketing studies"}}, "data": [{"compound": "O=C(O)c1ccc(-n2nc(-c3ccccc3O)nc2-c2ccccc2O)cc1", "note": "[Deferasirox, 4-[3,5-bis (2-hydroxyphenyl)-[1,2, 4]triazol-1-yl] enzoic acid]", "values": [{"measurement": "Lipid solubility", "result": "highly lipid-soluble"}, {"measurement": "Water solubility", "result": "highly water insoluble"}, {"measurement": "Solubility in lower pH", "setting": "lower pH", "result": "practically insoluble"}, {"measurement": "Solubility at pH 6.8", "setting": "pH 6.8, until buffer strength is altered", "result": "insoluble"}, {"measurement": "Elevations in liver transaminases, fraction of patients", "setting": "[1]", "result": "⅓"}]}]}
